*1 amine or outer side, *2 acyl side, *3 side chain or, on linkers, in order; H or OH if unused. Where a SMILES comes first, the peptide text is derived from it. [ ]: non-standard residue; d: D form. Trp(4-Cl)(βS-Me) = C[C@@H](c1c[nH]c2cccc(Cl)c12)[C@H](N)C(=O)O; Bip(4'-COOH) = N[C@@H](Cc1ccc(-c2ccc(C(=O)O)cc2)cc1)C(=O)O; X8 = O=C([C@H](CCc1cccc(C(F)(F)F)c1)N[*:1])[*:2]; Phe(4-COOH) = N[C@@H](Cc1ccc(C(=O)O)cc1)C(=O)O; X10 = O=C([C@H](CC1CCC(F)(F)CC1)N[*:1])[*:2]; Phe(4-NH2) = Nc1ccc(C[C@H](N)C(=O)O)cc1; Pro(4R-NH2) = N[C@H]1CN[C@H](C(=O)O)C1; X7 = O=C([C@H](CCN1CCOCC1)N[*:1])[*:2]; 1Nal = N[C@@H](Cc1cccc2ccccc12)C(=O)O; AEF = NCCOc1ccc(C[C@H](N)C(=O)O)cc1; hTyr = N[C@@H](CCc1ccc(O)cc1)C(=O)O; 4Pal = N[C@@H](Cc1ccncc1)C(=O)O; dDab = NCC[C@@H](N)C(=O)O; Orn = NCCC[C@H](N)C(=O)O; dNMeA = CN[C@H](C)C(=O)O; Dab = NCC[C@H](N)C(=O)O; Nva = CCC[C@H](N)C(=O)O; Aib = CC(C)(N)C(=O)O
target: T1, Recombinant human IL-1β (Homo sapiens, UniProt P01584); assay: IL-6 assay in MRC5 cells: inhibition of IL-1β induced IL-6 secretion (AlphaLISA); assay type: cell-based; settings: inhibition of IL-1β induced IL-6 secretion in MRC5 cells; read-out: MRC5 IC50
T1 construct: purchased BioLegend 579404
T1 sequence (P01584 117-269): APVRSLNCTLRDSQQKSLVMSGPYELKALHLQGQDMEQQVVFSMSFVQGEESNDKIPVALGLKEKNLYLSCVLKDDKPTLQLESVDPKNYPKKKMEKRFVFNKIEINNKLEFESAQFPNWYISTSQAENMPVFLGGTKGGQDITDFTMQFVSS
How it was run: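 IL-1β at 2×EC80 in seeding medium (EMEM, 0.025% BSA) preincubated 1 h at ambient temperature with compound, then 3000 MRC5 cells/well added and incubated overnight at 37 °C, 5% CO2. IL-6 in conditioned medium quantified by AlphaLISA; IC50 from 4-parameter logistic fit.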

Structure (SMILES)	IC50 [nM]
CC(=O)NCCOc1ccc(C[C@@H]2NC(=O)[C@H](CCc3ccc(O)cc3)NC(=O)[C@@H](C)NC(=O)[C@H](CC(C)C)NC(=O)[C@H](Cc3cccc4ccccc34)NC(=O)[C@H](Cc3ccc(-c4ccc(C(=O)O)cc4)cc3)NC(=O)CNC(=O)[C@@H](C)N(C)C(=O)[C@H](CC(=O)O)NC(=O)[C@H]([C@@H](C)c3c[nH]c4cccc(Cl)c34)NC(=O)[C@@H]3C[C@@H](N)CN3C(=O)CNC(=O)[C@H](Cc3ccc(C(=O)O)cc3)NC(=O)[C@H](Cc3c[nH]c4ccccc34)NC2=O)cc1 [Example 131] (cyclo([AEF](Ac)W[Phe(4-COOH)]G[Pro(4R-NH2)][Trp(4-Cl)(βS-Me)]D[dNMeA]G[Bip(4'-COOH)][1Nal]L[dA][hTyr]))	0.0498
CC(=O)NCCOc1ccc(C[C@@H]2NC(=O)CNC(=O)C(C)(C)NC(=O)[C@H](CCCN)NC(=O)[C@H](Cc3cccc4ccccc34)NC(=O)[C@H](Cc3ccc(-c4ccc(C(=O)O)cc4)cc3)NC(=O)CNC(=O)[C@@H](C)N(C)C(=O)[C@H](CC(=O)O)NC(=O)[C@H]([C@@H](C)c3c[nH]c4cccc(Cl)c34)NC(=O)[C@@H]3C[C@@H](N)CN3C(=O)CNC(=O)[C@H](Cc3ccc(C(=O)O)cc3)NC(=O)[C@H](Cc3c[nH]c4ccccc34)NC2=O)cc1 [Example 132] (cyclo([AEF](Ac)W[Phe(4-COOH)]G[Pro(4R-NH2)][Trp(4-Cl)(βS-Me)]D[dNMeA]G[Bip(4'-COOH)][1Nal][Orn][Aib]G))	0.37
CC(=O)NCCOc1ccc(C[C@@H]2NC(=O)[C@H](Cc3ccc(N)cc3)NC(=O)[C@@H](C)NC(=O)[C@H](CO)NC(=O)[C@H](Cc3cccc4ccccc34)NC(=O)[C@H](Cc3ccc(-c4ccc(C(=O)O)cc4)cc3)NC(=O)CNC(=O)[C@@H](C)N(C)C(=O)[C@H](CC(=O)O)NC(=O)[C@H]([C@@H](C)c3c[nH]c4cccc(Cl)c34)NC(=O)[C@@H]3C[C@@H](N)CN3C(=O)CNC(=O)[C@H](Cc3ccc(C(=O)O)cc3)NC(=O)[C@H](Cc3c[nH]c4ccccc34)NC2=O)cc1 [Example 133] (cyclo([AEF](Ac)W[Phe(4-COOH)]G[Pro(4R-NH2)][Trp(4-Cl)(βS-Me)]D[dNMeA]G[Bip(4'-COOH)][1Nal]S[dA][Phe(4-NH2)]))	0.766
CC(=O)NCCOc1ccc(C[C@@H]2NC(=O)[C@H](CCc3ccc(O)cc3)NC(=O)[C@@H](C)NC(=O)[C@H](CCN)NC(=O)[C@H](Cc3ccncc3)NC(=O)[C@H](Cc3ccc(-c4ccc(C(=O)O)cc4)cc3)NC(=O)CNC(=O)[C@@H](C)N(C)C(=O)[C@H](CC(=O)O)NC(=O)[C@H]([C@@H](C)c3c[nH]c4cccc(Cl)c34)NC(=O)[C@@H]3C[C@@H](N)CN3C(=O)CNC(=O)[C@H](Cc3ccc(C(=O)O)cc3)NC(=O)[C@H](Cc3c[nH]c4ccccc34)NC2=O)cc1 [Example 134] (cyclo([AEF](Ac)W[Phe(4-COOH)]G[Pro(4R-NH2)][Trp(4-Cl)(βS-Me)]D[dNMeA]G[Bip(4'-COOH)][4Pal][Dab][dA][hTyr]))	0.379

Other lines, results leading:

IC50 [nM]	Structure (SMILES)
0.31	CC(=O)NCCOc1ccc(C[C@@H]2NC(=O)[C@H](CCc3ccc(O)cc3)NC(=O)[C@@H](C)NC(=O)[C@H](CC(C)C)NC(=O)[C@H](Cc3ccncc3)NC(=O)[C@H](Cc3ccc(-c4ccc(C(=O)O)cc4)cc3)NC(=O)CNC(=O)[C@@H](C)N(C)C(=O)[C@H](CC(=O)O)NC(=O)[C@H]([C@@H](C)c3c[nH]c4cccc(Cl)c34)NC(=O)[C@@H]3C[C@@H](N)CN3C(=O)CNC(=O)[C@H](Cc3ccc(C(=O)O)cc3)NC(=O)[C@H](Cc3c[nH]c4ccccc34)NC2=O)cc1 [Example 135] (cyclo([AEF](Ac)W[Phe(4-COOH)]G[Pro(4R-NH2)][Trp(4-Cl)(βS-Me)]D[dNMeA]G[Bip(4'-COOH)][4Pal]L[dA][hTyr]))
0.396	CCC[C@@H]1NC(=O)[C@H](Cc2ccncc2)NC(=O)[C@H](Cc2ccc(-c3ccc(C(=O)O)cc3)cc2)NC(=O)CNC(=O)[C@@H](C)N(C)C(=O)[C@H](CC(=O)O)NC(=O)[C@H]([C@@H](C)c2c[nH]c3cccc(Cl)c23)NC(=O)[C@@H]2C[C@@H](N)CN2C(=O)CNC(=O)[C@H](Cc2ccc(C(=O)O)cc2)NC(=O)[C@H](Cc2c[nH]c3ccccc23)NC(=O)[C@H](Cc2ccc(OCCNC(C)=O)cc2)NC(=O)[C@H](CC2CCC(F)(F)CC2)NC(=O)[C@@H](C)NC1=O [Example 136] (cyclo([AEF](Ac)W[Phe(4-COOH)]G[Pro(4R-NH2)][Trp(4-Cl)(βS-Me)]D[dNMeA]G[Bip(4'-COOH)][4Pal][Nva][dA][X10]))
0.0938	CC(=O)NCCOc1ccc(C[C@@H]2NC(=O)[C@H](CCc3cccc(C(F)(F)F)c3)NC(=O)[C@@H](C)NC(=O)[C@H](CC(C)C)NC(=O)[C@H](CCCCN)NC(=O)[C@H](Cc3ccc(-c4ccc(C(=O)O)cc4)cc3)NC(=O)CNC(=O)[C@@H](C)N(C)C(=O)[C@H](CC(=O)O)NC(=O)[C@H]([C@@H](C)c3c[nH]c4cccc(Cl)c34)NC(=O)[C@@H]3C[C@@H](N)CN3C(=O)CNC(=O)[C@H](Cc3ccc(C(=O)O)cc3)NC(=O)[C@H](Cc3c[nH]c4ccccc34)NC2=O)cc1 [Example 137] (cyclo([AEF](Ac)W[Phe(4-COOH)]G[Pro(4R-NH2)][Trp(4-Cl)(βS-Me)]D[dNMeA]G[Bip(4'-COOH)]KL[dA][X8]))
0.214	CC(=O)NCCOc1ccc(C[C@@H]2NC(=O)[C@H](CCc3ccc(O)cc3)NC(=O)[C@@H](C)NC(=O)[C@H](CO)NC(=O)[C@H](CCCCN)NC(=O)[C@H](Cc3ccc(-c4ccc(C(=O)O)cc4)cc3)NC(=O)CNC(=O)[C@@H](C)N(C)C(=O)[C@H](CC(=O)O)NC(=O)[C@H]([C@@H](C)c3c[nH]c4cccc(Cl)c34)NC(=O)[C@@H]3C[C@@H](N)CN3C(=O)CNC(=O)[C@H](Cc3ccc(C(=O)O)cc3)NC(=O)[C@H](Cc3c[nH]c4ccccc34)NC2=O)cc1 [Example 138] (cyclo([AEF](Ac)W[Phe(4-COOH)]G[Pro(4R-NH2)][Trp(4-Cl)(βS-Me)]D[dNMeA]G[Bip(4'-COOH)]KS[dA][hTyr]))
0.133	CC(=O)NCCOc1ccc(C[C@@H]2NC(=O)[C@H](CCc3ccc(O)cc3)NC(=O)[C@@H](CCN)NC(=O)[C@H](CO)NC(=O)[C@H](CCCCN)NC(=O)[C@H](Cc3ccc(-c4ccc(C(=O)O)cc4)cc3)NC(=O)CNC(=O)[C@@H](C)N(C)C(=O)[C@H](CC(=O)O)NC(=O)[C@H]([C@@H](C)c3c[nH]c4cccc(Cl)c34)NC(=O)[C@@H]3C[C@@H](N)CN3C(=O)CNC(=O)[C@H](Cc3ccc(C(=O)O)cc3)NC(=O)[C@H](Cc3c[nH]c4ccccc34)NC2=O)cc1 [Example 139] (cyclo([AEF](Ac)W[Phe(4-COOH)]G[Pro(4R-NH2)][Trp(4-Cl)(βS-Me)]D[dNMeA]G[Bip(4'-COOH)]KS[dDab][hTyr]))
0.515	CC(=O)NCCOc1ccc(C[C@@H]2NC(=O)CNC(=O)[C@@H](C)NC(=O)[C@H](CCN3CCOCC3)NC(=O)[C@H](Cc3c[nH]c4ccccc34)NC(=O)[C@H](Cc3ccc(-c4ccc(C(=O)O)cc4)cc3)NC(=O)CNC(=O)[C@@H](C)N(C)C(=O)[C@H](CC(=O)O)NC(=O)[C@H]([C@@H](C)c3c[nH]c4cccc(Cl)c34)NC(=O)[C@@H]3C[C@@H](N)CN3C(=O)CNC(=O)[C@H](Cc3ccc(C(=O)O)cc3)NC(=O)[C@H](Cc3c[nH]c4ccccc34)NC2=O)cc1 [Example 140] (cyclo([AEF](Ac)W[Phe(4-COOH)]G[Pro(4R-NH2)][Trp(4-Cl)(βS-Me)]D[dNMeA]G[Bip(4'-COOH)]W[X7][dA]G))

— patent publication US20230406885A1, “CYCLIC PEPTIDES FOR TRAPPING INTERLEUKIN-1 BETA” (MERCK SHARP & DOHME LLC, priority 2022, published 2023)
